Results as given in US7175829B2, “Contrast-enhanced diagnostic imaging method for monitoring interventional therapies” (Epix Pharmaceuticals, Inc., priority 1997, dated 2007).
Blank lines part the entries; values can stand above or below the molecule they belong to.

What was measured:
[1] = biological target: T1, human serum albumin (HSA) (Homo sapiens, UniProt P02768); assay: T1-weighted MRI at 1.0 Tesla of agar phantoms containing 4.5% HSA during thermal denaturation; assay type: physicochemical; conditions: for % Loss ROI: 1% agar, 4.5% HSA; for % Loss ROI / loss in signal intensity after denaturation and cooling / loss of signal intensity on thermal denaturation: 0.3 mM Gd-DTPA, 0.1 mM MS-325; for loss in signal intensity after denaturation and cooling: denatured phantoms cooled to 37° C.; for loss of signal intensity on thermal denaturation: phantoms heated above 50–60° C.
T1 sequence (P02768 25-609): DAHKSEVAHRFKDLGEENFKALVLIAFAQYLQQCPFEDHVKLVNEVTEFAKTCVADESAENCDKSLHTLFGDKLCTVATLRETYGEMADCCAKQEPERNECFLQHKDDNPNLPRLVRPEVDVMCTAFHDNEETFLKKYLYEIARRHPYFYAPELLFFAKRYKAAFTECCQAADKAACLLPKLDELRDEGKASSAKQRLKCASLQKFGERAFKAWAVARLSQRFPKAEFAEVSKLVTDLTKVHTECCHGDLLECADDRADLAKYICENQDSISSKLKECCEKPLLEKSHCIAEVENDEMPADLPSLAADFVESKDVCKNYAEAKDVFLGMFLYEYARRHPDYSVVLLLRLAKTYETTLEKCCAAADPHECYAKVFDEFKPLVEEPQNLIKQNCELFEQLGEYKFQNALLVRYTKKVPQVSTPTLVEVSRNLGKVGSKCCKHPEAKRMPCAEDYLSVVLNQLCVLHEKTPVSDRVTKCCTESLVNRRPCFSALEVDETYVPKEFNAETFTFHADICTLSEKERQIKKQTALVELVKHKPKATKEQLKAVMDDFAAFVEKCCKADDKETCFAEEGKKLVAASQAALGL
Method: The following samples were prepared in 1% agar gels containing 4.5% HSA: (1) a control sample without a contrast agent; (2) a comparative sample with Gd-DTPA; and (3) a sample with MS-325. The contrast agents were added in an amount sufficient such that the concentration of Gd-DTPA and MS-325 were 0.3 mM Gd-DTPA and 0.1 mM MS-325, respectively. Such agar gels containing 4.5% HSA are referred to as “phantoms”.
Initial T1-weighted MRI scans (FISP-3D, TR=15, TE=4, alpha=30) at 1.0 Tesla of the agar phantoms were then obtained at a temperature of about 25° C.
The phantoms were then heated in a circulating water bath with additional T1-weighted MRI scans obtained over time.

[2] = biological target: T1, human serum albumin (HSA); assay: Relaxivity R1 at 20 MHz during ethanol denaturation of 4.5% HSA solutions; assay type: physicochemical; conditions: for decrease/change in observed relaxivity during ethanol ablation: 4.5% HSA solutions, 0.31 mM Gd-DTPA, 0.08 mM MS-325, 37° C.; for R1 0.31 mM Gd-DTPA / R1 0.08 mM MS-325: 4.5% HSA, 37° C.
Method: (§1) In these examples, the longitudinal relaxivities (R1, mM^−1 sec^−1) were monitored and obtained at 20 MHz by determining the relaxation rate (1/T1) of water protons in phosphate buffered saline (PBS, 150 mM NaCl, 10 mM phosphate, pH=7.4), in PBS solutions containing 4.5 wt % HSA, or in gels containing 4.5 wt % HSA and 1% Agar. The dependence of temperature on relaxivity (R1) was observed by varying the temperature of the samples with a circulating water bath and monitoring sample temperature with a thermocouple.
(§2) The following three samples were prepared in solutions of 4.5% HSA: (1) a control sample without a contrast agent; (2) a comparative sample with Gd-DTPA; and (3) a sample with MS-325. The samples with Gd-DTPA and MS-325 were prepared by adding an aqueous formulation (pH=7) comprising either Gd-DTPA or MS-325 to the 4.5% HSA solution.
Absolute ethanol was then titrated to each of the samples. T1 data (and thus R1 data (=1/T1)) was collected at 20 MHz and 37° C. after each addition of ethanol.

[3] = biological target: T1, human serum albumin (HSA); assay: Relaxivity R1 at 20 MHz during thermal denaturation of 4.5% HSA solutions; assay type: physicochemical; conditions: for R1: 20 MHz, 4.5% HSA solution; for R1 / net loss in R1 after denatured samples cooled to physiological temperature / loss in observed R1 during denaturation of the HSA: 0.3 mM Gd-DTPA, 0.1 mM MS-325; for net loss in R1 after denatured samples cooled to physiological temperature: denatured samples cooled to 37° C.; for loss in observed R1 during denaturation of the HSA: from immediately before denaturation (56.2° C.) to immediately after denaturation (85° C.)
Method: as §1, §2
The three samples were then used to monitor the thermal denaturation of the 4.5% HSA solutions. […] Each sample was then removed from the NMR and heated at 85° C. for 15 minutes to induce thermal denaturation of the HSA. Subsequently, the sample was returned to the NMR and T1 data was collected at this higher temperature.

[4] = Rat plasma pharmacokinetic experiment (blood retention, AUC-conc.); assay type: in vivo; conditions: two rats, tail vein injection of 0.1 mmol/kg Gd^153-labeled Gd-DTPA
From the text: The incorporation into a contrast agent of this invention of a BHEM results in prolonged blood retention of the agent. […] Blood retention (as measured by AUC-conc) can be evaluated experimentally by administration of a contrast agent to rats, rabbits, or higher mammals. It has been observed that blood half-life extension is greater in rabbits and higher mammals than in rats. In this application, blood half-life data, as measured by AUC-conc., represents experimentation in rats.
For example, the average plasma concentrations observed after tail vein injection of 0.1 mmol/kg of Gd^153-labeled Gd-DTPA in two rats is shown in FIG. 1.

[5] = tested on: alpha 1-acid glycoprotein (AAG); conditions: binding to alpha 1-acid glycoprotein; cited from earlier work
[6] = 120 min, 35.5 °C (cooled after denaturation), 1.0 Tesla
[7] = 85.0 °C, after heating at 85° C. for 15 minutes (HSA denatured)

Structure (SMILES): O=C([O-])CN(CCN(CC(=O)[O-])CC(=O)O)CCN(CC(=O)[O-])CC(=O)O.[Gd+3] [Gd-DTPA, reference compound]
- % Loss ROI ([1]; 0 min, 25.3 °C, 1.0 Tesla): −0.2456%
- % Loss ROI ([1]; 10 min, 29.6 °C, 1.0 Tesla): −5.1875%
- % Loss ROI ([1]; 20 min, 38.3 °C, 1.0 Tesla): −12.806%
- % Loss ROI ([1]; 30 min, 45.0 °C, 1.0 Tesla): −18.985%
- % Loss ROI ([1]; 40 min, 53.0 °C, 1.0 Tesla): −30.964%
- % Loss ROI ([1]; 50 min, 64.7 °C, 1.0 Tesla): −43.833%
- % Loss ROI ([1]; 60 min, 72.8 °C, 1.0 Tesla): −46.086%
- % Loss ROI ([1]; 70 min, 87.1 °C, 1.0 Tesla): −47.529%
- % Loss ROI [1, 6]: −10.190%
- loss in signal intensity after denaturation and cooling [1]: 10%
- loss of signal intensity on thermal denaturation [1]: only a modest change
- decrease/change in observed relaxivity during ethanol ablation [2]: 0.3 mM⁻¹ s⁻¹
- R1 0.31 mM Gd-DTPA ([2]; ethanol 0.0 %): 4.1737 mM⁻¹ s⁻¹
- R1 0.31 mM Gd-DTPA ([2]; ethanol 16.1 %): 4.7191 mM⁻¹ s⁻¹
- R1 0.31 mM Gd-DTPA ([2]; ethanol 27.8 %): 5.0021 mM⁻¹ s⁻¹
- R1 0.31 mM Gd-DTPA ([2]; ethanol 36.6 %): 4.9347 mM⁻¹ s⁻¹
- R1 0.31 mM Gd-DTPA ([2]; ethanol 43.5 %): 4.7997 mM⁻¹ s⁻¹
- R1 0.31 mM Gd-DTPA ([2]; ethanol 49.0 %): 4.4623 mM⁻¹ s⁻¹
- R1 ([3]; 7.3 °C): 9.4556 mM⁻¹ s⁻¹
- R1 ([3]; 11.7 °C): 8.8125 mM⁻¹ s⁻¹
- R1 ([3]; 16.2 °C): 8.0690 mM⁻¹ s⁻¹
- R1 ([3]; 20.6 °C): 7.4182 mM⁻¹ s⁻¹
- R1 ([3]; 25.0 °C): 6.7426 mM⁻¹ s⁻¹
- R1 ([3]; 29.5 °C): 6.2117 mM⁻¹ s⁻¹
- R1 ([3]; 33.9 °C): 5.7089 mM⁻¹ s⁻¹
- R1 ([3]; 38.4 °C): 5.2984 mM⁻¹ s⁻¹
- R1 ([3]; 42.8 °C): 4.8917 mM⁻¹ s⁻¹
- R1 ([3]; 47.3 °C): 4.5992 mM⁻¹ s⁻¹
- R1 ([3]; 51.7 °C): 4.3083 mM⁻¹ s⁻¹
- R1 ([3]; 56.2 °C): 4.0592 mM⁻¹ s⁻¹
- R1 ([3]; 60.6 °C): 3.8806 mM⁻¹ s⁻¹
- R1 [3, 7]: 4.2102 mM⁻¹ s⁻¹
- net loss in R1 after denatured samples cooled to physiological temperature [3]: 0.5 mM^−1 sec^−1
- loss in observed R1 during denaturation of the HSA [3]: 0.1 mM⁻¹ s⁻¹
- binding to native or denatured HSA ([3]; inferred from R1 change during thermal denaturation): does not bind to either native or denatured HSA
- AUC-conc. from 0 to 10 minutes [4]: 3.5 mM·min

- % Loss ROI ([1]; 0 min, 25.3 °C, 1.0 Tesla): 0.0000%
- % Loss ROI ([1]; 10 min, 29.6 °C, 1.0 Tesla): −4.4755%
- % Loss ROI ([1]; 20 min, 38.3 °C, 1.0 Tesla): −6.4144%
- % Loss ROI ([1]; 30 min, 45.0 °C, 1.0 Tesla): −11.241%
- % Loss ROI ([1]; 40 min, 53.0 °C, 1.0 Tesla): −26.153%
- % Loss ROI ([1]; 50 min, 64.7 °C, 1.0 Tesla): −49.262%
- % Loss ROI ([1]; 60 min, 72.8 °C, 1.0 Tesla): −69.499%
- % Loss ROI ([1]; 70 min, 87.1 °C, 1.0 Tesla): −76.469%
- % Loss ROI [1, 6]: −31.869%
- brightness of phantoms in initial T1-weighted MRI scans ([1]; about 25° C., 1.0 Tesla, versus phantoms with Gd-DTPA or 4.5% HSA alone): brighter
- loss in signal intensity after denaturation and cooling [1]: 32%
- loss of signal intensity on thermal denaturation [1]: 76%
- decrease/change in observed relaxivity during ethanol ablation [2]: 33 mM⁻¹ s⁻¹
- R1 0.08 mM MS-325 ([2]; ethanol 0.0 %): 42.216 mM⁻¹ s⁻¹
- R1 0.08 mM MS-325 ([2]; ethanol 0.9 %): 40.848 mM⁻¹ s⁻¹
- R1 0.08 mM MS-325 ([2]; ethanol 1.9 %): 39.541 mM⁻¹ s⁻¹
- R1 0.08 mM MS-325 ([2]; ethanol 2.8 %): 38.423 mM⁻¹ s⁻¹
- R1 0.08 mM MS-325 ([2]; ethanol 3.7 %): 37.064 mM⁻¹ s⁻¹
- R1 0.08 mM MS-325 ([2]; ethanol 4.5 %): 36.375 mM⁻¹ s⁻¹
- R1 0.08 mM MS-325 ([2]; ethanol 5.4 %): 35.234 mM⁻¹ s⁻¹
- R1 0.08 mM MS-325 ([2]; ethanol 6.2 %): 34.576 mM⁻¹ s⁻¹
- R1 0.08 mM MS-325 ([2]; ethanol 7.1 %): 33.895 mM⁻¹ s⁻¹
- R1 0.08 mM MS-325 ([2]; ethanol 7.9 %): 33.099 mM⁻¹ s⁻¹
- R1 0.08 mM MS-325 ([2]; ethanol 8.7 %): 32.224 mM⁻¹ s⁻¹
- R1 0.08 mM MS-325 ([2]; ethanol 10.2 %): 31.689 mM⁻¹ s⁻¹
- R1 0.08 mM MS-325 ([2]; ethanol 11.7 %): 30.403 mM⁻¹ s⁻¹
- R1 0.08 mM MS-325 ([2]; ethanol 16.4 %): 26.939 mM⁻¹ s⁻¹
- R1 0.08 mM MS-325 ([2]; ethanol 22.8 %): 21.456 mM⁻¹ s⁻¹
- R1 0.08 mM MS-325 ([2]; ethanol 28.3 %): 17.428 mM⁻¹ s⁻¹
- R1 0.08 mM MS-325 ([2]; ethanol 33.1 %): 14.082 mM⁻¹ s⁻¹
- R1 0.08 mM MS-325 ([2]; ethanol 37.3 %): 11.187 mM⁻¹ s⁻¹
- R1 0.08 mM MS-325 ([2]; ethanol 41.0 %): 9.6943 mM⁻¹ s⁻¹
- R1 0.08 mM MS-325 ([2]; ethanol 44.2 %): 8.9506 mM⁻¹ s⁻¹
- R1 0.08 mM MS-325 ([2]; ethanol 47.2 %): 8.7970 mM⁻¹ s⁻¹
- R1 ([3]; 7.3 °C): 31.2 mM⁻¹ s⁻¹
- R1 ([3]; 11.7 °C): 33.4 mM⁻¹ s⁻¹
- R1 ([3]; 16.2 °C): 36.0 mM⁻¹ s⁻¹
- R1 ([3]; 20.6 °C): 38.6 mM⁻¹ s⁻¹
- R1 ([3]; 25.0 °C): 40.6 mM⁻¹ s⁻¹
- R1 ([3]; 29.5 °C): 42.0 mM⁻¹ s⁻¹
- R1 ([3]; 33.9 °C): 42.8 mM⁻¹ s⁻¹
- R1 ([3]; 38.4 °C): 42.4 mM⁻¹ s⁻¹
- R1 ([3]; 42.8 °C): 42.3 mM⁻¹ s⁻¹
- R1 ([3]; 47.3 °C): 41.3 mM⁻¹ s⁻¹
- R1 ([3]; 51.7 °C): 39.5 mM⁻¹ s⁻¹
- R1 ([3]; 56.2 °C): 37.5 mM⁻¹ s⁻¹
- R1 ([3]; 60.6 °C): 33.3 mM⁻¹ s⁻¹
- R1 [3, 7]: 10.8 mM⁻¹ s⁻¹
- net loss in R1 after denatured samples cooled to physiological temperature [3]: 25 mM^−1 sec^−1
- loss in observed R1 during denaturation of the HSA [3]: 26.7 mM⁻¹ s⁻¹
Structure (SMILES): O=C(O)CN(CCN(CC(=O)O)CC(COP(=O)(O)OC1CCC(c2ccccc2)(c2ccccc2)CC1)N(CC(=O)O)CC(=O)O)CC(=O)O (stereo not drawn) [MS-325]

Structure (SMILES): CN(C)CCCN1c2ccccc2Sc2ccc(Cl)cc21 [chloropromazine]
- Ka [5]: 35.4×10^5
